Measurements taken from US20080318954A1, “Compounds” (Cyclacel Limited, priority 2004, published 2008).
Entries after “also recorded” stand apart in the source; their conditions may differ.

Key:
DYRK1a = target: T1, DYRK1a (Homo sapiens, UniProt Q13627); assay: Protein kinase panel selectivity screen, DYRK1a; type: biochemical; settings: 1 μM compound; [ATP] 50 μM
T1 construct: Dundee University (screening panel)
Description: (§1) The names of the 29 kinases comprising the selectivity screen, as well as the ATP concentrations used in each kinase case, are given in Table 5. The kinase assays were carried out as described previously.
(§2) Compound XIV at a concentration of 1 μM was screened in the 29-kinase panel (Dundee University) and the results are shown bellow in Table 6.

[1] = test system: β-catenin in HEK293 cells; assay: β-catenin accumulation and phosphorylation in HEK293 cells; type: cell-based, human; settings: up to 5 μM
Description: One of the possible toxicities related to GSK3 inhibition is the accumulation of β-catenin, which has been implicated in the development of colon cancer and melanoma. The effect of example compound XIV on the endogenous levels of β-catenin in HEK293 cells was studied at concentrations that are effective in activation of cellular glycogen synthase.

CDK9/cyclin T1 = target: T2, CDK9/cyclin T1 (Homo sapiens, UniProt P50750); assay: CDK9/cyclin T1 inhibition constant; type: biochemical
T2 construct: His6 (N); made in house; host or cells: Sf9 insect cells (baculovirus)
Description: CDK4/cyclin D1, CDK1/cyclin B, CDK2/cyclin E, CDK2/cyclin A, CDK9/cyclin T1 and CDK7/cyclin H, all with a His6 tag on the N-terminus, were expressed in Sf9 insect cells using an appropriate baculovirus construct. Sf9 culture (1.6×10^6 cells/mL) was infected (MOI of 3) for two days. The cells were harvested by low speed centrifugation and the protein was purified from the insect cell pellet by metal affinity chromatography. In short: the insect cell pellet was lysed in Buffer A (10 mM Tris-HCl pH 8.0, 150 mM NaCl, 0.02% NP-40, 5 mM β-mercaptoethanol, 20 mM NaF, 1 mM Na3VO4, and Sigma Protease Inhibitor Cocktail) by sonication. The soluble fraction was cleared by centrifugation and loaded onto Ni-NTA-Agarose (Qiagen). Non-bound protein was washed off with 300 mM NaCl, 5-15 mM imidazole in buffer A and the bound protein was eluted with buffer A supplemented with 250 mM imidazole. The purified proteins were extensively dialyzed against storage buffer (20 mM HEPES pH 7.4, 50 mM NaCl, 2 mM DTT, 1 mM EDTA, 1 mM EGTA, 0.02% NP-40, 10% v/v glycerol) and stored at −70° C.
Intrinsic inhibition constants (Ki) for example compound XIV against a number of Ser/Thr kinases were determined and are summarized in Table 3.

GSK-3β = target: T3, GSK-3β (Oryctolagus cuniculus, UniProt G1T8E2); assay: GSK-3β kinase assay; type: biochemical, rabbit
T3 construct: isolated from a strain of E. coli that carries a clone expressing GSK-3β derived from a rabbit skeletal muscle cDNA library [34]
Description: GSK-3 was obtained from New England Biolabs (UK) Ltd., Hitchin, Herts. The recombinant enzyme was isolated from a strain of E. coli that carries a clone expressing GSK-3β derived from a rabbit skeletal muscle cDNA library. Inhibition of GSK-3 function was assessed by measurement of phosphorylation of CREB phosphopeptide KRREILSRRPpSYR in the presence of test compounds. Using a 96-well assay format, GSK3 (7.5 U) was incubated for 30 min at 30° C. in a total volume of 25 μL in 20 mM MOPS pH 7.2, 25 mM β-glycerophosphate, 5 mM EGTA, 1 mM DTT, 1 mM […], 40 μM CREB peptide, 15 mM MgCl2 and 100 μM ATP (containing 0.25 μCi [γ-^32P]-ATP) in the presence of varying concentrations of test compound. The samples were transferred to 96-well p81 filter plates (Whatman Polyfiltronics, Kent, UK), and the plates were washed 4 times with 200 μL/well of 75 mM aq orthophosphoric acid. Scintillation liquid (50 μL) was added to each well, and incorporated radioactivity for each sample was determined using a scintillation counter (TopCount, Packard Instruments, Pangbourne, Berks, UK).

CHK1 = target: T4, CHK1 (Homo sapiens, UniProt O14757); assay: Protein kinase panel selectivity screen, CHK1; type: biochemical; settings: 1 μM compound; [ATP] 20 μM
T4 construct: Dundee University (screening panel)
Description: as §1, §2

[2] = test system: glycogen synthase activity in L6 rat myocytes; assay: Glycogen synthase (GS) assay in L6 rat myocytes; type: cell-based
Description: Rat skeletal muscle myoblasts L6/G8.C5 were seeded at 2.4×10^5 cells per 10 cm dish in DMEM 10% foetal calf serum (FCS), containing penicillin/streptomycin. When 90% confluence was reached the medium was exchanged with α MEM, supplemented with 2%
FCS and penicillin/streptomycin. Medium was refreshed every 48 hours and 4-7 days later the myocytes were formed.
Cells on 10 cm dishes (Human Embryonic Kidney (HEK) 293 cells, L6 rat myocytes, or 3T3 mouse adipocytes) were treated with different concentrations of GSK3-inhibitors or DMSO vehicle for 90 min. […] Lysates were assayed for glycogen synthase activity in buffer (50 mM Tris-HCl, pH 7.8, 20 mM EDTA, 25 mM NaF, 5 mM DTT, 1% glycogen, 0.3 mM UDP-glucose and 0.06 μCi of [^14C]-UDP-glucose in the presence of 0.1 or 10 mM glucose-6-phosphate. The reaction was carried out for 30 min at 30° C. 70 μL of the reaction mixture (total volume 90 μL) were transferred to a GFC 96-well filter plate (bottom sealed with foil), containing 140 μL 96% ethanol. The GFC plate was incubated for 1 h on ice and than washed with 66% ethanol. To each well 100 μL scintillant liquid was added and the radioactivity of the samples was measured using a scintillation counter (Topcount, HP). Data are expressed as -fold increase in glycogen synthase activity ratios over those of control samples.

SAPK4/p38d = target: T5, SAPK4/p38d (Homo sapiens, UniProt O15264); assay: Protein kinase panel selectivity screen, SAPK4/p38d; type: biochemical; settings: 1 μM compound
T5 construct: Dundee University (panel)
Description: as §1, §2

T5 sequence (O15264 whole entry): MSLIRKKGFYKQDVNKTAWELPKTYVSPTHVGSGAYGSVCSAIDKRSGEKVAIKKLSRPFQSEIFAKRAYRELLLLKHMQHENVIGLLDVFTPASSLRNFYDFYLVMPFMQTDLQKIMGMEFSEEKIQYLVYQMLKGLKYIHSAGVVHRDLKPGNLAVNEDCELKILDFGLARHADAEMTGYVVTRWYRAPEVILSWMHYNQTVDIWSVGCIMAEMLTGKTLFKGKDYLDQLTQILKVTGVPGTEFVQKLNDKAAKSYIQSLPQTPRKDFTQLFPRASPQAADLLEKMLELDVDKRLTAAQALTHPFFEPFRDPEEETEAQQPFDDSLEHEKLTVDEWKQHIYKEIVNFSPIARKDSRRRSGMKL
T2 sequence (P50750 whole entry, species assumed): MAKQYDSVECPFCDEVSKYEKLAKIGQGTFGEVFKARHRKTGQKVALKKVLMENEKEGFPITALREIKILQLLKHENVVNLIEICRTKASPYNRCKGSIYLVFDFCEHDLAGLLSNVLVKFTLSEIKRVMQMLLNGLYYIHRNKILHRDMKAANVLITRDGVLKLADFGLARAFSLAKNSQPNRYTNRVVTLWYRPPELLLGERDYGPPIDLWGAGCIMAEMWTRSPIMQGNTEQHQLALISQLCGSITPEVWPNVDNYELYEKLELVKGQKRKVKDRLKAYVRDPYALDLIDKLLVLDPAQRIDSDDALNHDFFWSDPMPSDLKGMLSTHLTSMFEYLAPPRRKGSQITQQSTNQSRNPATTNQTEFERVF
T2 sequence (O60563 whole entry partner, species assumed): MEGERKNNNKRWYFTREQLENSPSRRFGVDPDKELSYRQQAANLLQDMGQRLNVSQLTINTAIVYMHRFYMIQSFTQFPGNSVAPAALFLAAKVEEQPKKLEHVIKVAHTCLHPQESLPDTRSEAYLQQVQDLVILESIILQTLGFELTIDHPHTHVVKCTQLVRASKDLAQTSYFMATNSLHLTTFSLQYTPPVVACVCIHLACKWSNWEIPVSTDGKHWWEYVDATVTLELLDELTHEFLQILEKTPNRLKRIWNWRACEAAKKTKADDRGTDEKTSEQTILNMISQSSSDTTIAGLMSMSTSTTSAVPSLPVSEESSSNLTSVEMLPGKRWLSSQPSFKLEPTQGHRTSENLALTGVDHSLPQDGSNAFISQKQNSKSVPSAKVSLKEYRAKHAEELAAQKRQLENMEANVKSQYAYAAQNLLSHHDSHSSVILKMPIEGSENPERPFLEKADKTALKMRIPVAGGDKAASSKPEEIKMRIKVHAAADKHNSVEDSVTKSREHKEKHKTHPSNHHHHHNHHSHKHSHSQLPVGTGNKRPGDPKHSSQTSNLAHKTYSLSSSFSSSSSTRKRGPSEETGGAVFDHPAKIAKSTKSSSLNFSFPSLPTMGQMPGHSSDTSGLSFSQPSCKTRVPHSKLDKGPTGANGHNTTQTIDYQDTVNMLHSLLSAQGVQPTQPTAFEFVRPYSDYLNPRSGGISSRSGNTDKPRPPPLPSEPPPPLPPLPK
T3 sequence (G1T8E2 1-432): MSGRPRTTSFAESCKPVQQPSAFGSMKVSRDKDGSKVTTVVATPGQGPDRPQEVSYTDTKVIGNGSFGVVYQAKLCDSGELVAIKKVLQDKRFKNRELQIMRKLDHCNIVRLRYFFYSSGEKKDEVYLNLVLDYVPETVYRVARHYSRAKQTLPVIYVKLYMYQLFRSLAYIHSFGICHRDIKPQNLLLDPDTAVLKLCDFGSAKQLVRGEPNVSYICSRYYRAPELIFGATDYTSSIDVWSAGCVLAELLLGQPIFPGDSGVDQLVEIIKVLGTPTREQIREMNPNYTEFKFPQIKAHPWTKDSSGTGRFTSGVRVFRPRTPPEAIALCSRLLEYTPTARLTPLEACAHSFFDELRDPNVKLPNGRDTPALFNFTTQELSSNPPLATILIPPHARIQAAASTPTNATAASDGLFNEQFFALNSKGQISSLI
T4 sequence (O14757 whole entry, species assumed): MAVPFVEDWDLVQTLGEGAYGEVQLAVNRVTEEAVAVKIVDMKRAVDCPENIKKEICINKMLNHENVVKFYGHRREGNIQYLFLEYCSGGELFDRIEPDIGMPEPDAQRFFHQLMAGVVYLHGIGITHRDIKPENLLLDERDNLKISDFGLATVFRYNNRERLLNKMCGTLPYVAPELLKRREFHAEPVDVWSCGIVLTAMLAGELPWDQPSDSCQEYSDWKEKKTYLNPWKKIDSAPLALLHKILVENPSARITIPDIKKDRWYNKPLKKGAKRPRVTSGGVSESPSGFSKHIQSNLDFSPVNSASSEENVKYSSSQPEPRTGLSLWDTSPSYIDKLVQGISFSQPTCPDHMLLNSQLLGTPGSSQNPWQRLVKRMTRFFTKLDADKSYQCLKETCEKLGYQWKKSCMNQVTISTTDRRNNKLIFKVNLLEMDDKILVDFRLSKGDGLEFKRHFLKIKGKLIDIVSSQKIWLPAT

## Clc1ccc(Nc2nccc(-c3nccs3)n2)cn1 [Compound XIV, (6-Chloro-pyridin-3-yl)-(4-thiazol-2-yl-pyrimidin-2-yl)-amine]
DYRK1a
  activity at 1 µM: 74 ± 8%
[1]
  Levels of cellular β-catenin: lack of β-catenin accumulation; also recorded: did not change significantly
  Phosphorylation of β-catenin at the GSK3-specific sites S33,37/T41: did not inhibit the phosphorylation
CDK9/cyclin T1
  Ki: 500 nM
CDK9/cyclin T1; from Ki
  Fold selectivity for GSK3 over CDK9/cyclin T1: 31 fold
GSK-3β; read-out: Ki GSK3
  Ki: 16 nM
GSK-3β; read-out: Kinase inhibition IC50 GSK3β
  IC50: 176 nM
CHK1
  activity at 1 µM: 78 ± 4%
[2]; Rattus norvegicus, L6 myocytes, from dose-response curves, read-out: EC50 activation of glycogen synthase
  EC50: 4000 ± 1500 nM
[2]; rat myocyte cells, ratio of activity at 0.1 and 10 mM glucose-6-phosphate
  Activity of glycogen synthase (fractional velocity): increased the activity of glycogen synthase
SAPK4/p38d
  inhibition at 1 µM: ~40%
SAPK4/p38d; [ATP] 5 μM
  activity at 1 µM: 91 ± 9%
